The first assay has as its target T1, recombinant human SYK360-635 (Homo sapiens, UniProt P43405).
T1 construct: made in house
The assay can be described thus: Determination of IC50 of Spleen Tyrosine Kinase (SYK) inhibition, 33P ATP filtration assay. Type of assay: biochemical. As to conditions: SYK aa 360-635 0.5 nM; ATP 20 μM, peptide 5 μM, 0.1% BSA; read-out: SYK_ENZYME_FILTRATION/v1, BSA.
Description: All concentrations were final in the reaction mixture and all incubations were carried at room temperature. […] SYK Assay Information Determination of IC50 of Spleen Tyrosine Kinase (SYK) Inhibition:
SYK kinase assay is a standard kinase assay adapted to a 96 well plate format. This assay is performed in 96-well format for IC50 determination with 8 samples which represented 10 half log dilutions and a 40 μL reaction volume. The assay measures the incorporation of radiolabeled ^33P γATP into an N-terminally biotinylated peptide substrate, derived from naturally occurring phosphoacceptor consensus sequence (Biotin-11aa DY*E). […] Experimental Method:
DMSO and the mixture was incubated for 10 min at RT.
The kinase reaction was initiated by the addition of 10 μL 4× substrate cocktail containing the DYE peptide substrate [0 or 5 μM], ATP [20 μM] and ^33PγATP [2 μCi/r×n]. After incubation at 30° C. for 15 min, the reaction was terminated by the transfer of 25 μL pf the reaction sample to a 96 well 0.65 μm Millipore MADVNOB membrane/plate containing 200 μL 5 mM EDTA and 20% Streptavidine coated beads in PBS.
The unbound radionucleotides were washed under vacuum with 3×250 μL 2M NaCl; 2×250 μL 2M NaCl+1% phosphoric acid; 1×250 μL H2O. After the last wash membrane/plates were transferred to an adaptor plate, heat dried for 15 min at 60° C., and 50 μL scintillation cocktail was added to each well and 4 h later the amount of radioactivity was counted in a top counter.
As for `CC(C)(C)NC(=O)c1c[nH]c2ncc(-n3ncc4cc(C(F)(F)F)ccc43)nc12` [Example I-337, 2-(5-Trifluoromethyl-indazol-1-yl)-5H-pyrrolo[2,3-b]pyrazine-7-carboxylic acid tert-butylamide], the IC50 was 595 nM.

For the compound `CN(C)C(=O)CCn1nc(-c2cnc3[nH]cc(C(=O)NC(C)(C)C)c3n2)c2cc(OC(F)F)ccc21` [Example I-339, 2-[5-Difluoromethoxy-1-(2-dimethylcarbamoyl-ethyl)-1H-indazol-3-yl]-5H-pyrrolo[2,3-b]pyrazine-7-carboxylic acid tert-butylamide], the IC50 was found to be 17.9 nM.

On to `CC(C)(C)NC(=O)c1c[nH]c2ncc(-c3nn(CC4CN(Cc5ccccc5)CCO4)c4ccc(OC(F)F)cc34)nc12` (stereo not drawn) [Example I-340, 2-[1-(4-Benzyl-morpholin-2-ylmethyl)-5-difluoromethoxy-1H-indazol-3-yl]-5H-pyrrolo[2,3-b]pyrazine-7-carboxylic acid tert-butylamide], for which the IC50 was 295 nM.

Consider `CN1CCOC(Cn2nc(-c3cnc4[nH]cc(C(=O)NC(C)(C)C)c4n3)c3cc(OC(F)F)ccc32)C1` (stereo not drawn) [Example I-342, 2-[5-Difluoromethoxy-1-(4-methyl-morpholin-2-ylmethyl)-1H-indazol-3-yl]-5H-pyrrolo[2,3-b]pyrazine-7-carboxylic acid tert-butylamide], for which the IC50 was 17.2 nM.

On to `CC(C)(C)NC(=O)c1c[nH]c2ncc(-c3nn(CCCN4CCC(F)(F)C4)c4ccc(OC(F)F)cc34)nc12` [Example I-343, 2-{5-Difluoromethoxy-1-[3-(3,3-difluoro-pyrrolidin-1-yl)-propyl]-1H-indazol-3-yl}-5H-pyrrolo[2,3-b]pyrazine-7-carboxylic acid tert-butylamide], for which the IC50 was 37 nM.

Regarding `COc1nn(-c2cnc3[nH]cc(C(=O)NC(C)(C)CO)c3n2)c2ccccc12` [Example I-344, 2-(3-Methoxy-indazol-1-yl)-5H-pyrrolo[2,3-b]pyrazine-7-carboxylic acid (2-hydroxy-1,1-dimethyl-ethyl)-amide], the IC50 was determined as 8.88 nM.

With `CNCCCn1nc(-c2cnc3[nH]cc(C(=O)NC(C)(C)C)c3n2)c2cc(OC(F)F)ccc21` [Example I-345, 2-[5-Difluoromethoxy-1-(3-methylamino-propyl)-1H-indazol-3-yl]-5H-pyrrolo[2,3-b]pyrazine-7-carboxylic acid tert-butylamide], the IC50 was 5.12 nM.

Turning to `CC(=O)N(C)CCCn1nc(-c2cnc3[nH]cc(C(=O)NC(C)(C)C)c3n2)c2cc(OC(F)F)ccc21` [Example I-346, 2-{1-[3-(Acetyl-methyl-amino)-propyl]-5-difluoromethoxy-1H-indazol-3-yl}-5H-pyrrolo[2,3-b]pyrazine-7-carboxylic acid tert-butylamide], the IC50 was 5.55 nM.

Consider `CC(C)(C)NC(=O)c1c[nH]c2ncc(-c3nn(CC4CNC4)c4ccc(OC(F)F)cc34)nc12` [Example I-350, 2-(1-Azetidin-3-ylmethyl-5-difluoromethoxy-1H-indazol-3-yl)-5H-pyrrolo[2,3-b]pyrazine-7-carboxylic acid tert-butylamide], for which the IC50 is 5.98 nM.

Regarding `CC(C)(C)NC(=O)c1c[nH]c2ncc(-c3nn(CC4CC4)c4ccc(OC(F)F)cc34)nc12` [Example I-351, 2-(1-Cyclopropylmethyl-5-difluoromethoxy-1H-indazol-3-yl)-5H-pyrrolo[2,3-b]pyrazine-7-carboxylic acid tert-butylamide], the IC50 was determined as 18.4 nM.

On to `CC(C)(C)NC(=O)c1c[nH]c2ncc(-c3nn(CC(=O)N4CCN(CC(F)(F)F)CC4)c4ccc(OC(F)F)cc34)nc12` [Example I-352, 2-(5-Difluoromethoxy-1-{2-oxo-2-[4-(2,2,2-trifluoro-ethyl)-piperazin-1-yl]-ethyl}-1H-indazol-3-yl)-5H-pyrrolo[2,3-b]pyrazine-7-carboxylic acid tert-butylamide], for which the IC50 was 15.9 nM.

Turning to `CN1CCN(C(=O)Cn2nc(-c3cnc4[nH]cc(C(=O)NC(C)(C)C)c4n3)c3cc(OC(F)F)ccc32)CC1` [Example I-353, 2-{5-Difluoromethoxy-1-[2-(4-methyl-piperazin-1-yl)-2-oxo-ethyl]-1H-indazol-3-yl}-5H-pyrrolo[2,3-b]pyrazine-7-carboxylic acid tert-butylamide], the IC50 turned out to be 56.3 nM.

With `CNC(=O)Cn1nc(-c2cnc3[nH]cc(C(=O)NC(C)(C)C)c3n2)c2cc(OC(F)F)ccc21` [Example I-354, 2-(5-Difluoromethoxy-1-methylcarbamoylmethyl-1H-indazol-3-yl)-5H-pyrrolo[2,3-b]pyrazine-7-carboxylic acid tert-butylamide], the IC50 was determined as 14.4 nM.

Consider `CCc1cccc2c(-c3cnc4[nH]cc(C(=O)NC(C)(C)C)c4n3)n[nH]c12` [Example I-355, 2-(7-Ethyl-1H-indazol-3-yl)-5H-pyrrolo[2,3-b]pyrazine-7-carboxylic acid tert-butylamide], for which the IC50 turned out to be 3.19 nM.

With `CC(C)(C)NC(=O)c1c[nH]c2ncc(-c3ncn4cc(Cl)ccc34)nc12` [Example I-356, 2-(6-Chloro-imidazo[1,5-a]pyridin-1-yl)-5H-pyrrolo[2,3-b]pyrazine-7-carboxylic acid tert-butylamide], the IC50 was 8.92 nM.

As to `C[C@H](NC(=O)c1c[nH]c2ncc(-c3nn(C)c4cc(F)ccc34)nc12)c1ncc(C(F)(F)F)[nH]1` [Example I-358, 2-(6-Fluoro-1-methyl-1H-indazol-3-yl)-5H-pyrrolo[2,3-b]pyrazine-7-carboxylic acid [(S)-1-(5-trifluoromethyl-1H-imidazol-2-yl)-ethyl]-amide], the IC50 was determined as 107 nM.

For `COC(=O)c1cnc([C@H](C)NC(=O)c2c[nH]c3ncc(-c4nn(C)c5cc(F)ccc45)nc23)[nH]1` [Example I-359, 2-((S)-1-{[2-(6-Fluoro-1-methyl-1H-indazol-3-yl)-5H-pyrrolo[2,3-b]pyrazine-7-carbonyl]-amino}-ethyl)-3H-imidazole-4-carboxylic acid methyl ester], the IC50 came out at 112 nM.

Take `C#CC1CN(C(=O)c2c[nH]c3ncc(-c4nn(C)c5cc(F)ccc45)nc23)C1` [Example I-360, (3-Ethynyl-azetidin-1-yl)-[2-(6-fluoro-1-methyl-1H-indazol-3-yl)-5H-pyrrolo[2,3-b]pyrazin-7-yl]-methanone]: the IC50 is 1550 nM.

Regarding `CONC(=O)c1c[nH]c2ncc(-c3nn(C)c4cc(F)ccc34)nc12` [Example I-361, 2-(6-Fluoro-1-methyl-1H-indazol-3-yl)-5H-pyrrolo[2,3-b]pyrazine-7-carboxylic acid methoxy-amide], the IC50 came to 214 nM.

Take `CCc1ccc2c(-c3cnc4[nH]cc(C(=O)NC(C)(C)C)c4n3)nn(C)c2c1` [Example I-367, 2-(6-Ethyl-1-methyl-1H-indazol-3-yl)-5H-pyrrolo[2,3-b]pyrazine-7-carboxylic acid tert-butylamide]: the IC50 came to 4.78 nM.

Staying with this assay, now noted: SYK_ENZYME_FILTRATION/v1, BSA, SYK aa 360-635 0.5 nM; ATP 20 μM, peptide 5 μM, 0.1% BSA.
With `CC(C)(CO)NC(=O)c1c[nH]c2ncc(-n3nc(C4CCNCC4)c4ccccc43)nc12` [Example I-347, 2-(3-Piperidin-4-yl-indazol-1-yl)-5H-pyrrolo[2,3-b]pyrazine-7-carboxylic acid (2-hydroxy-1,1-dimethyl-ethyl)-amide], the IC50 is 14.3 nM.

For the origin of these results see patent US8658646B2, “Pyrrolopyrazine kinase inhibitors” (Hoffmann-LaRoche Inc., priority 2011, dated 2014).
